One data set has as its system HSV-2. The data set can be described thus: Anti-HSV-2 activity by qPCR in infected Vero cells. The note with it: for minimal effective concentration: Human alphaherpesvirus 2, Vero, 24 h, read-out: lowest concentration with (significant) antiviral activity against HSV-2, Vero cells infected with HSV-2, MOI 0.01, qPCR after 24 h; for antiviral activity against HSV-2 (in words): Vero cells infected with HSV-2, qPCR.

The nature of data set [1]: MTT cytotoxicity assay on Vero cells. Particulars: African green monkey. (Formazan colour is commonly taken as a measure of viable cells.)
For data set [2], the system named is S. enterica serovar Typhimurium 14028s. Description: Antibiofilm effect in combination with tetracycline. The data set is classed as cell-based, Salmonella enterica serovar Typhimurium. Particulars: compound at ½ MIC; for antibiofilm effect in the presence of TET: 1.25 µM of TET; for effect on the antibiofilm activity of TET compared to TET alone: 2.5 µM of TET. On the procedure: […]; 4, 5, 7, 8 and 9 for S. Typhimurium).
[…]. The effect was determined by two-fold broth microdilution method in 96-well plates, using serial dilutions of TET and CIP. The first four rows contained two-fold dilutions of antibiotics, and combinations of the antibiotics and tested compounds were added into the last four rows. The overnight bacterial cultures were diluted to an OD of 0.1 at 600 nm and then added to each well, in 50 μL LB, without salt or TSB, with the exception of the medium control wells. The plates were then incubated at 30 °C, for 48 h, with gentle agitation (100 rpm), and the biofilm formation was determined by measuring the OD at 600 nm, using a FLUOstar Optima plate reader. The antibiofilm effect of antibiotic alone and in combination with selenocompounds was expressed in the percentage (%) of decrease in biofilm formation. The results were analyzed by using the t-test and p-values of <0.05 were considered significant.

Data set [3] shares this test system. The data set can be described thus: Biofilm formation assay with crystal violet. The data set is classed as cell-based, Salmonella enterica serovar Typhimurium. The note with it: Salmonella enterica, compound at 50 μM, 48 h. On the procedure:
(§1) The biofilm-forming ability of S. Typhimurium and S. aureus ATCC strains was studied in 96-well microtiter plates, using Luria-Bertani (LB) broth without salt (S. Typhimurium) or tryptic soy broth TSB (S. aureus) in the presence of selenocompounds. Initially, overnight cultures were diluted to an optical density (OD) of 0.1 at 600 nm and then added to each well, with the exception of the medium control wells and compounds were added individually at ½ MIC. The final volume was 200 μL in each well. Plates were incubated at 30 °C, for 48 h, with gentle agitation (100 rpm). After the incubation period, the medium was discarded, and the plate was washed with tap water, to remove unattached cells. Then, 200 μL of crystal violet (CV; 0.1% [v/v]) was added to the wells and incubated for 15 min at room temperature. CV was removed from the wells, and the plate was washed again with tap water. Then, 200 μL of 70% ethanol was added to each well, and the biofilm formation was determined by measuring the OD at 600 nm, using a FLUOstar Optima plate reader (BMG Labtech, Aylesbury, UK). The antibiofilm effect of selenocompounds was expressed in the percentage (%) decrease in biofilm formation. The assay was repeated a minimum of three times. The results were analyzed by using the t-test and p-values of <0.05 were considered significant.

The test system of the next data set is S. aureus ATCC 25923. Description: Biofilm formation assay with crystal violet. Particulars: Staphylococcus aureus, ATCC25923; compound at 50 μM, 48 h. The class given is cell-based. On the procedure: as §1
The test system of data set [4] is Candida glabrata ATCC 36909. The data set can be described thus: Antifungal disk-diffusion. Particulars: Nakaseomyces glabratus, ATCC36909, 72 h, read-out: Inhibition Zone Diameter, 10 mM on disk, 72 h. For orientation: In agar diffusion tests the substance spreads into inoculated agar from a disc or well.
Description: Disk diffusion. The antifungal activity of the selenocompounds against selected pathogenic yeasts were screened, measuring their inhibition zones [49]. Solutions of the selenocompounds were set at two concentrations: 200 µM (from a 10 mM stock solution) and 10 mM. The sterile filter paper discs (diameter (D) 6 mm) impregnated with the solutions (10 µL of solutions) were placed on Saboraud Dextrose Agar (SDA), inoculated with the respective suspensions of yeasts (inocula of 0.5 McFarland’s standard). The solvent (DMSO) served as negative control, and an additional plate was inoculated without disks, to serve as growth control. The inocula were used within 15 min of preparation, the disks were applied within 15 min of inoculating the plates, and incubation started within 15 min of application of the disks (according to EUCAST standards). The plates were then incubated for 72 h, under aerobic conditions, at 37 °C. Inhibition zone diameters generated by the tested compounds (including the diameter of the disc) were measured. All experiments were performed in triplicate.

As to `Nc1nc2c(ncn2COCCO)c(=O)[nH]1` [acyclovir, reference compound], the minimal effective concentration with HSV-2 is 10 µM. The “complete inhibition of HSV-2 replication” value in the data set on HSV-2 (examined concentrations 1.25–2500 μM) is recorded as “could not inhibit the replication of HSV-2 completely”.

A word on the IC50: it is the concentration that gives 50% inhibition. By inhibition is commonly meant how much of the control response was suppressed. On to `C[Se]C(=O)c1cccc(C(=O)[Se]C)c1` [Compound 4], for which the 50% inhibitory concentration (IC50) at 24 h in data set [1] was > 100 µM. The “antibiofilm effect in the presence of TET” value in data set [2] is recorded as “significantly higher antibiofilm effects”. The “antiviral activity against HSV-2 (in words)” value in the data set with HSV-2 was “did not reduce the number of HSV-2”. The same compound yielded an inhibition at 50 µM in data set [3] of 75%.

With `C[Se]C(=O)c1ccc(C(=O)[Se]C)cc1` [Compound 5], the IC50 at 24 h in data set [1] was > 100 µM. Besides, the “effect on the antibiofilm activity of TET compared to TET alone” value in data set [2] is reported as “significantly reduced the activity of the antibiotic”. Also, the “antiviral activity against HSV-2 (in words)” value in the data set with HSV-2 is “did not reduce the number of HSV-2”. The compound also showed an inhibition at 50 µM in data set [3] of 73%.

For `NC(=O)C[Se]C(=O)c1ccccc1` [Compound 6], the inhibition at 50 µM in the data set on S. aureus ATCC 25923 was > 70%. For the same compound, the IC50 at 24 h in data set [1] is > 100 µM. In the data set on HSV-2, the minimal effective concentration was 25 µM and the “antiviral activity at concentration x-fold lower than the cytotoxic concentration (IC50 in Vero cells)” value turned out to be 2 fold. In addition, the zone of inhibition at 10000 µM in data set [4] was < 10 mm.

For the compound `O=C(C[Se]C(=O)c1ccccc1)Oc1ccccc1` [Compound 8], the inhibition at 50 µM in the data set with S. aureus ATCC 25923 was > 70%. In addition, the IC50 at 24 h in data set [1] is > 100 µM. In addition, in data set [2], the “antibiofilm effect in the presence of TET” value is “significantly higher antibiofilm effects” and the “effect on the antibiofilm activity of TET compared to TET alone” value is on record as “significantly reduced the activity of the antibiotic”. Moreover, in the data set on HSV-2, the minimal effective concentration was determined as 12.5 µM and the “antiviral activity at concentration x-fold lower than the cytotoxic concentration (IC50 in Vero cells)” value came out at 8 fold.

For the compound `C[Se]C(=O)c1ccc(C(=O)[Se]C)s1` [Compound 2], the IC50 at 24 h in data set [1] was > 100 µM. For the same compound, the “antiviral activity against HSV-2 (in words)” value with HSV-2 is reported as “did not reduce the number of HSV-2”. Also, the inhibition at 50 µM in data set [3] was > 50%.

Consider `C[Se]C(=O)c1cccc(C(=O)[Se]C)n1` [Compound 3], for which, in data set [1], the IC50 at 24 h is > 100 µM. The minimal effective concentration with HSV-2 was determined as 10 µM. Also, the inhibition at 50 µM in data set [3] was > 50%.

The values are drawn from PMC6930503, “Antiviral, Antimicrobial and Antibiofilm Activity of Selenoesters and Selenoanhydrides” (Molecules, 2019).
